pIC50: −log10 of the molar value. Residues, ends and D or L forms follow the SMILES beside them.

The assay deals with DPP-IV enzyme (Homo sapiens, UniProt P27487). Briefly: biochemical.
Sequence of DPP-IV enzyme (P27487 whole entry, species assumed): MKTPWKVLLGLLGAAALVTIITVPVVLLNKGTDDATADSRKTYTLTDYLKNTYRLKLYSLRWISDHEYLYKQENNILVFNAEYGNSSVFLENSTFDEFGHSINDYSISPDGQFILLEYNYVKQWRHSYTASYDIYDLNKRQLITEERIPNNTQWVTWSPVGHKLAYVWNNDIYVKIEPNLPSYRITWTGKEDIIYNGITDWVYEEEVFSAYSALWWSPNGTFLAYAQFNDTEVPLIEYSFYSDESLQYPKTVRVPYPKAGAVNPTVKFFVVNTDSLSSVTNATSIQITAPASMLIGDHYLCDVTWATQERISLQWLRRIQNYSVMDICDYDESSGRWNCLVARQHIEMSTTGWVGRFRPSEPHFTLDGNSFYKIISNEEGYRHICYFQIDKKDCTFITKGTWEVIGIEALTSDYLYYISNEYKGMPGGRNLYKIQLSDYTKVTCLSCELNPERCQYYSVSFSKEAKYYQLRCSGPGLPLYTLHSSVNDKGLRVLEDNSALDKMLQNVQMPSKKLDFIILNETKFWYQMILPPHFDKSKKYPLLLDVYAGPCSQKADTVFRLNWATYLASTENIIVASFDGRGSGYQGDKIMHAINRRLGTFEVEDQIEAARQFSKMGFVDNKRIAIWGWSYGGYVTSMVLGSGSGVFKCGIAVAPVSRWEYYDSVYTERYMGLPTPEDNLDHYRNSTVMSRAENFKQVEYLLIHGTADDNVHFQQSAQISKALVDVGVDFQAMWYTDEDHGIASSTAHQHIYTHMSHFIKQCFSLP
With `C[C@@H](O)[C@H](NC(=O)[C@H](CC(N)=O)NC(=O)CNC(=O)[C@H](Cc1ccccc1)NC(=O)[C@@H]1CCCN1)C(=O)N[C@@H](Cc1c[nH]cn1)C(=O)N[C@@H](CC(N)=O)C(=O)N[C@@H](CC(N)=O)C(=O)N[C@@H](Cc1ccccc1)C(=O)N[C@@H](CCCCN)C(=O)O` [D1] (H-PFGNTHNNFK-OH), the pIC50 was 2.07.

`CC[C@H](C)[C@H](N)C(=O)N1CCC[C@H]1C(=O)N[C@@H](Cc1c[nH]cn1)C(=O)N[C@@H](CCC(=O)O)C(=O)N[C@@H](CO)C(=O)N[C@H](C(=O)N[C@@H](CC(=O)O)C(=O)N[C@H](C(=O)N[C@H](C(=O)N[C@@H](CCCCN)C(=O)O)[C@@H](C)CC)C(C)C)C(C)C` [D22] (H-IPHESVDVIK-OH) showed a pIC50 of 2.57.

On to `CSCC[C@H](NC(=O)[C@H](Cc1c[nH]cn1)NC(=O)[C@H](CC(N)=O)NC(=O)[C@H](CC(N)=O)NC(=O)[C@H](Cc1c[nH]cn1)NC(=O)[C@H](CCCCN)NC(=O)[C@H](CO)NC(=O)[C@H](CC(C)C)NC(=O)[C@H](CC(=O)O)NC(=O)[C@@H]1CCCN1)C(=O)O` [D35] (H-PDLSKHNNHM-OH), for which the pIC50 is 2.41.

`CC(C)[C@H](NC(=O)[C@H](C)NC(=O)[C@H](CCC(=O)O)NC(=O)[C@H](C)NC(=O)[C@@H]1CCCN1C(=O)[C@@H](N)CCC(=O)O)C(=O)NCC(=O)N[C@@H](CC(=O)O)C(=O)N[C@@H](Cc1c[nH]c2ccccc12)C(=O)N[C@@H](CCCNC(=N)N)C(=O)O` [D37] (H-EPAEAVGDWR-OH) had a pIC50 of 4.00. This pIC50 lies 1.59 log units higher than the previous one.

(Values after PMC9529664 (Current Research in Food Science, 2022).)
